Assay results reported in patent US6358885B1, “Substituted phenylheterocyclic herbicides” (Mississippi State University, priority 1992, dated 2002).

Assays:
barley [1] = assay: Test B preemergence/postemergence greenhouse plant response rating 0 to 10; format: in vivo, Hordeum vulgare; details: 0 to 10 scale
Method in brief: (§1)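 Test chemicals were sprayed onto freshly planted seed and, concurrently, onto young plants between the one and four leaf stage. After a twelve- to sixteen-day greenhouse period, each species was visually compared with untreated controls.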

bedstraw [2] = assay: as above; format: in vivo, Galium aparine; details: 0 to 10 scale
Method in brief: as §1

blackgrass [3] = assay: as above; format: in vivo, Alopecurus myosuroides; details: 0 to 10 scale
Method in brief: as §1

cheatgrass = assay: as above; format: in vivo, Bromus secalinus; details: 0 to 10 scale
Method in brief: as §1

cotton = assay: as above; format: in vivo, Gossypium hirsutum; details: 0 to 10 scale
Method in brief: as §1

rape = assay: as above; format: in vivo, Brassica napus; details: 0 to 10 scale
Method in brief: as §1

rice = assay: as above; format: in vivo, Oryza sativa; details: 0 to 10 scale
Method in brief: as §1

sorghum [4] = assay: as above; format: in vivo, Sorghum bicolor; details: 0 to 10 scale
Method in brief: as §1

wheat = assay: as above; format: in vivo, Triticum aestivum; details: 0 to 10 scale
Method in brief: as §1

barley [5] = assay: Test C preemergence/postemergence greenhouse plant response rating 0 to 100; format: in vivo, Hordeum vulgare; details: for Plant response rating Barley Igri: 62 g/ha, 0 to 100 scale
Method in brief: (§2)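 Compounds in non-phytotoxic solvent went onto sandy loam before emergence (seeded one day earlier) or onto plants at the one-to-four leaf stage. Duck salad was treated via flood water (~2.5 cm, maintained) over silt loam.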

bedstraw [6] = assay: as above; format: in vivo, Galium aparine; details: for Plant response rating, Bedstraw: 62 g/ha, 0 to 100 scale
Method in brief: as §2

blackgrass [7] = assay: as above; format: in vivo, Alopecurus myosuroides; details: for Plant response rating, Blackgrass: 62 g/ha, 0 to 100 scale
Method in brief: as §2

pigweed = assay: as above; format: in vivo, Amaranthusretroflexus; details: for Plant response rating Pigweed: 62 g/ha, 0 to 100 scale
Method in brief: as §2

ryegrass = assay: as above; format: in vivo, Lolium multiflorum; details: for Plant response rating Ryegrass: 62 g/ha, 0 to 100 scale
Method in brief: as §2

sorghum [8] = assay: as above; format: in vivo, Sorghum bicolor
Method in brief: as §2

sugar beet = assay: as above; format: in vivo, Beta vulgaris
Method in brief: as §2

wild buckwheat = assay: as above; format: in vivo, Polygonum convolvulus
Method in brief: as §2

duck salad = assay: Test C flood test plant response rating 0 to 100; format: in vivo, Heteranthera limosa
Method in brief: as §2

[9] = POSTEMERGENCE, 62 g/ha, 0 to 100 scale

CC(C)Oc1cc(-c2nn3c(c2Br)CCCC3)c(F)cc1Cl [Compound 38]
Plant response rating, Barley (barley [1]; POSTEMERGENCE, Rate 50 g/ha): 4 | Plant response rating, Barley (barley [1]; POSTEMERGENCE, Rate 200 g/ha): 6 | Plant response rating, Barley (barley [1]; PREEMERGENCE, Rate 50 g/ha): 0 | Plant response rating, Barley (barley [1]; Rate 200 g/ha, PREEMERGENCE): 1 | Plant response rating, Bedstraw (bedstraw [2]; POSTEMERGENCE, Rate 200 g/ha): 10 | Plant response rating, Bedstraw (bedstraw [2]; PREEMERGENCE, Rate 50 g/ha): 0 | Plant response rating, Bedstraw (bedstraw [2]; Rate 200 g/ha, PREEMERGENCE): 7 | Plant response rating, Blackgrass (blackgrass [3]; POSTEMERGENCE, Rate 50 g/ha): 3 | Plant response rating, Blackgrass (blackgrass [3]; POSTEMERGENCE, Rate 200 g/ha): 7 | Plant response rating, Blackgrass (blackgrass [3]; PREEMERGENCE, Rate 50 g/ha): 1 | Plant response rating, Blackgrass (blackgrass [3]; Rate 200 g/ha, PREEMERGENCE): 1 | Plant response rating, Cheatgrass (cheatgrass; POSTEMERGENCE, Rate 50 g/ha): 4 | Plant response rating, Cheatgrass (cheatgrass; POSTEMERGENCE, Rate 200 g/ha): 5 | Plant response rating, Cheatgrass (cheatgrass; PREEMERGENCE, Rate 50 g/ha): 0 | Plant response rating, Cheatgrass (cheatgrass; Rate 200 g/ha, PREEMERGENCE): 3 | Plant response rating, Cotton (cotton; POSTEMERGENCE, Rate 50 g/ha): 9 | Plant response rating, Cotton (cotton; POSTEMERGENCE, Rate 200 g/ha): 10 | Plant response rating, Cotton (cotton; PREEMERGENCE, Rate 50 g/ha): 0 | Plant response rating, Cotton (cotton; Rate 200 g/ha, PREEMERGENCE): 9 | Plant response rating, Rape (rape; POSTEMERGENCE, Rate 50 g/ha): 8 | Plant response rating, Rape (rape; PREEMERGENCE, Rate 50 g/ha): 8 | Plant response rating, Rape (rape; Rate 200 g/ha, POSTEMERGENCE): 10 | Plant response rating, Rape (rape; Rate 200 g/ha, PREEMERGENCE): 8 | Plant response rating, Rice (rice; POSTEMERGENCE, Rate 50 g/ha): 5 | Plant response rating, Rice (rice; PREEMERGENCE, Rate 50 g/ha): 0 | Plant response rating, Rice (rice; Rate 200 g/ha, POSTEMERGENCE): 6 | Plant response rating, Rice (rice; Rate 200 g/ha, PREEMERGENCE): 2 | Plant response rating, Sorghum (sorghum [4]; POSTEMERGENCE, Rate 50 g/ha): 5 | Plant response rating, Sorghum (sorghum [4]; PREEMERGENCE, Rate 50 g/ha): 0 | Plant response rating, Sorghum (sorghum [4]; Rate 200 g/ha, POSTEMERGENCE): 6 | Plant response rating, Sorghum (sorghum [4]; Rate 200 g/ha, PREEMERGENCE): 1 | Plant response rating, Wheat (wheat; POSTEMERGENCE, Rate 50 g/ha): 4 | Plant response rating, Wheat (wheat; PREEMERGENCE, Rate 50 g/ha): 0 | Plant response rating, Wheat (wheat; Rate 200 g/ha, POSTEMERGENCE): 6 | Plant response rating, Wheat (wheat; Rate 200 g/ha, PREEMERGENCE): 2 | Plant response rating Barley Igri (barley [5]; POSTEMERGENCE): 50 | Plant response rating (0 to 100), Barley Igri (barley [5]; POSTEMERGENCE, Rate 1 g/ha): 10 | Plant response rating Barley Igri (barley [5]; PREEMERGENCE): 0 | Plant response rating (0 to 100), Barley Igri (barley [5]; PREEMERGENCE, Rate 1 g/ha): 0 | Plant response rating (0 to 100), Barley Igri (barley [5]; PREEMERGENCE, Rate 4 g/ha): 0 | Plant response rating (0 to 100), Barley Igri (barley [5]; Rate 4 g/ha, POSTEMERGENCE): 30 | Plant response rating (0 to 100), Barley Igri (barley [5]; Rate 16 g/ha, POSTEMERGENCE): 40 | Plant response rating (0 to 100), Barley Igri (barley [5]; Rate 16 g/ha, PREEMERGENCE): 0 | Plant response rating, Bedstraw (bedstraw [6]; POSTEMERGENCE): 90 | Plant response rating (0 to 100), Bedstraw (bedstraw [6]; POSTEMERGENCE, Rate 1 g/ha): 20 | Plant response rating, Bedstraw (bedstraw [6]; PREEMERGENCE): 50 | Plant response rating (0 to 100), Bedstraw (bedstraw [6]; PREEMERGENCE, Rate 1 g/ha): 0 | Plant response rating (0 to 100), Bedstraw (bedstraw [6]; PREEMERGENCE, Rate 4 g/ha): 0 | Plant response rating (0 to 100), Bedstraw (bedstraw [6]; Rate 4 g/ha, POSTEMERGENCE): 50 | Plant response rating (0 to 100), Bedstraw (bedstraw [6]; Rate 16 g/ha, POSTEMERGENCE): 50 | Plant response rating (0 to 100), Bedstraw (bedstraw [6]; Rate 16 g/ha, PREEMERGENCE): 20 | Plant response rating, Blackgrass (blackgrass [7]; POSTEMERGENCE): 40 | Plant response rating (0 to 100), Blackgrass (blackgrass [7]; POSTEMERGENCE, Rate 1 g/ha): 10 | Plant response rating, Blackgrass (blackgrass [7]; PREEMERGENCE): 30 | Plant response rating (0 to 100), Blackgrass (blackgrass [7]; PREEMERGENCE, Rate 1 g/ha): 0 | Plant response rating (0 to 100), Blackgrass (blackgrass [7]; PREEMERGENCE, Rate 4 g/ha): 0 | Plant response rating (0 to 100), Blackgrass (blackgrass [7]; Rate 4 g/ha, POSTEMERGENCE): 10 | Plant response rating (0 to 100), Blackgrass (blackgrass [7]; Rate 16 g/ha, POSTEMERGENCE): 20 | Plant response rating (0 to 100), Blackgrass (blackgrass [7]; Rate 16 g/ha, PREEMERGENCE): 0 | Plant response rating Pigweed (pigweed; POSTEMERGENCE): 100 | Plant response rating (0 to 100), Pigweed (pigweed; POSTEMERGENCE, Rate 1 g/ha): 10 | Plant response rating (0 to 100), Pigweed (pigweed; POSTEMERGENCE, Rate 4 g/ha): 30 | Plant response rating Pigweed (pigweed; PREEMERGENCE): 100 | Plant response rating (0 to 100), Pigweed (pigweed; PREEMERGENCE, Rate 1 g/ha): 0 | Plant response rating (0 to 100), Pigweed (pigweed; PREEMERGENCE, Rate 4 g/ha): 0 | Plant response rating (0 to 100), Pigweed (pigweed; Rate 16 g/ha, POSTEMERGENCE): 100 | Plant response rating (0 to 100), Pigweed (pigweed; Rate 16 g/ha, PREEMERGENCE): 90 | Plant response rating Ryegrass (ryegrass; POSTEMERGENCE): 50 | Plant response rating (0 to 100), Ryegrass (ryegrass; POSTEMERGENCE, Rate 1 g/ha): 0 | Plant response rating (0 to 100), Ryegrass (ryegrass; POSTEMERGENCE, Rate 4 g/ha): 10 | Plant response rating Ryegrass (ryegrass; PREEMERGENCE): 0 | Plant response rating (0 to 100), Ryegrass (ryegrass; PREEMERGENCE, Rate 1 g/ha): 0 | Plant response rating (0 to 100), Ryegrass (ryegrass; PREEMERGENCE, Rate 4 g/ha): 0 | Plant response rating (0 to 100), Ryegrass (ryegrass; Rate 16 g/ha, POSTEMERGENCE): 30 | Plant response rating (0 to 100), Ryegrass (ryegrass; Rate 16 g/ha, PREEMERGENCE): 0 | Plant response rating, Sorghum (sorghum [8]; [9]): 70 | Plant response rating (0 to 100), Sorghum (sorghum [8]; POSTEMERGENCE, Rate 1 g/ha): 20 | Plant response rating (0 to 100), Sorghum (sorghum [8]; POSTEMERGENCE, Rate 4 g/ha): 30 | Plant response rating (0 to 100), Sorghum (sorghum [8]; PREEMERGENCE, Rate 1 g/ha): 0 | Plant response rating (0 to 100), Sorghum (sorghum [8]; PREEMERGENCE, Rate 4 g/ha): 0 | Plant response rating (0 to 100), Sorghum (sorghum [8]; Rate 16 g/ha, POSTEMERGENCE): 60 | Plant response rating (0 to 100), Sorghum (sorghum [8]; Rate 16 g/ha, PREEMERGENCE): 10 | Plant response rating, Sugar beet (sugar beet; [9]): 100 | Plant response rating (0 to 100), Sugar beet (sugar beet; POSTEMERGENCE, Rate 1 g/ha): 20 | Plant response rating (0 to 100), Sugar beet (sugar beet; POSTEMERGENCE, Rate 4 g/ha): 70 | Plant response rating (0 to 100), Sugar beet (sugar beet; PREEMERGENCE, Rate 1 g/ha): 0 | Plant response rating (0 to 100), Sugar beet (sugar beet; PREEMERGENCE, Rate 4 g/ha): 0 | Plant response rating (0 to 100), Sugar beet (sugar beet; Rate 16 g/ha, POSTEMERGENCE): 100 | Plant response rating (0 to 100), Sugar beet (sugar beet; Rate 16 g/ha, PREEMERGENCE): 30 | Plant response rating, Wild buckwheat (wild buckwheat; [9]): 100 | Plant response rating (0 to 100), Wild buckwheat (wild buckwheat; POSTEMERGENCE, Rate 1 g/ha): 40 | Plant response rating (0 to 100), Wild buckwheat (wild buckwheat; POSTEMERGENCE, Rate 4 g/ha): 100 | Plant response rating (0 to 100), Wild buckwheat (wild buckwheat; PREEMERGENCE, Rate 1 g/ha): 0 | Plant response rating (0 to 100), Wild buckwheat (wild buckwheat; PREEMERGENCE, Rate 4 g/ha): 0 | Plant response rating (0 to 100), Wild buckwheat (wild buckwheat; Rate 16 g/ha, POSTEMERGENCE): 100 | Plant response rating (0 to 100), Wild buckwheat (wild buckwheat; Rate 16 g/ha, PREEMERGENCE): 20 | Plant response rating (0 to 100), Duck salad (duck salad; POSTEMERGENCE section, flood test, Rate 1 g/ha): 0 | Plant response rating (0 to 100), Duck salad (duck salad; POSTEMERGENCE section, flood test, Rate 4 g/ha): 0 | Plant response rating (0 to 100), Duck salad (duck salad; Rate 16 g/ha, under POSTEMERGENCE head (flood test species)): 20 | Plant response rating Duck salad (duck salad; flood test species listed under POSTEMERGENCE, 62 g/ha, 0 to 100 scale): 50
